These results are taken from ChEMBL document CHEMBL5131569, “SAGE-718: A First-in-Class N-Methyl-d-Aspartate Receptor Positive Allosteric Modulator for the Potential Treatment of Cognitive Impairment” (J Med Chem, 2022).

Data set [1] is described as follows: Metabolic stability in rat liver microsomes assessed as intrinsic clearance at 10 uM preincubated for 5 mins followed by NADPH addition and measured upto 65 mins by LC-MS/MS analysis. The data set is classed as ADME, Microsome. The note with it: time < 70 min, read-out: CLH. For orientation: Microsomes from liver hold many membrane-bound enzymes, among them those of drug oxidation.

Data set [2] has as its target Glutamate NMDA receptor; GRIN1/GRIN2B (Homo sapiens, UniProt Q05586+Q13224). The experiment in a line: Positive allosteric modulation of recombinant human GluN1/GluN2B receptor stably expressed in HEK293 cells assessed as increase in glycine/L-glutamate-induced channel current at -70 mV holding potential by whole cell patch clamp method. The data set is classed as cell-based. (In patch-clamp work, channel activity is measured electrically.)

Data set [3] can be described thus: Aqueous solubility of compound in PBS incubated for 1 hr under shaking condition by HPLC-MS/MS analysis. The format is physicochemical.
A short description of data set [4]: Oral bioavailability in Sprague-Dawley rat by LC-MS/MS analysis. The format is ADME, organism-based. The following applies: in vivo.
The nature of data set [5]: Oral bioavailability in Beagle dog by LC-MS/MS analysis. The format is ADME, organism-based, Canis lupus familiaris. The note with it: in vivo.
A short description of data set [6]: Ratio of drug concentration in ip dosed CD-1 mouse brain to plasma after 1 hr by LC-MS/MS analysis. The format is ADME, organism-based. The note with it: brain and plasma.
The target in the next data set is T1, Cytochrome P450 2C8 (Homo sapiens, UniProt P10632).
T1 sequence (P10632 whole entry): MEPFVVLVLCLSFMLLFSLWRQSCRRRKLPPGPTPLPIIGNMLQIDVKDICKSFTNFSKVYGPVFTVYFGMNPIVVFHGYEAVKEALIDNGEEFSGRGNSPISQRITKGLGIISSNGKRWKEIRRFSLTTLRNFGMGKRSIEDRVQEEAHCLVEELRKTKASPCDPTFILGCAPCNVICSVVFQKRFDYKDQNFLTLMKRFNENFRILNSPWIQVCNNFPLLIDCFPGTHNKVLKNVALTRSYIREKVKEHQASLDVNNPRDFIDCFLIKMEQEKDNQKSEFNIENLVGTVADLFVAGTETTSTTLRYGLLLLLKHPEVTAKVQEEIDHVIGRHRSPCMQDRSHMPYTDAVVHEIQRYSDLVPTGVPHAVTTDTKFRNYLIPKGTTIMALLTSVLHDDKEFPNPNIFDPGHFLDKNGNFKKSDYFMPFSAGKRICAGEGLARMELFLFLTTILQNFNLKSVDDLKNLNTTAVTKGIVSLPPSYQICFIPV
Nature of the data set: Inhibition of CYP2C8 (unknown origin). The data set is classed as ADME.

The next data set deals with Cytochrome P450 2C9 (Homo sapiens, UniProt P11712). Nature of the data set: Inhibition of CYP2C9 (unknown origin). The format is ADME.
Sequence of Cytochrome P450 2C9 (P11712 whole entry): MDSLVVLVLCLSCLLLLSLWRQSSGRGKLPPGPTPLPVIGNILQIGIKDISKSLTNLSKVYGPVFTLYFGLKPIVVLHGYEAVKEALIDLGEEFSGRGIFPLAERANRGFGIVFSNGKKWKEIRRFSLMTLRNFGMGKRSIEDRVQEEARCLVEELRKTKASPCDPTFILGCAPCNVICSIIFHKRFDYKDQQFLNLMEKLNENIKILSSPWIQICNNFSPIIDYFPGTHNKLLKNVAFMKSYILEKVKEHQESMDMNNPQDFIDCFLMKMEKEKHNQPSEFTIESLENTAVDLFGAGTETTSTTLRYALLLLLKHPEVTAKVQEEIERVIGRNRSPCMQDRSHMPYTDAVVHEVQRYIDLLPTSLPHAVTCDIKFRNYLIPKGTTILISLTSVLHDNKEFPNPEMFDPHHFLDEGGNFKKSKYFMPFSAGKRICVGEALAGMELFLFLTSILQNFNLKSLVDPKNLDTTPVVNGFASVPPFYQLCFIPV
The target of the next data set is Cytochrome P450 2C19 (Homo sapiens, UniProt P33261). Nature of the data set: Inhibition of CYP2C19 (unknown origin). The format is ADME.
Sequence of Cytochrome P450 2C19 (P33261 whole entry): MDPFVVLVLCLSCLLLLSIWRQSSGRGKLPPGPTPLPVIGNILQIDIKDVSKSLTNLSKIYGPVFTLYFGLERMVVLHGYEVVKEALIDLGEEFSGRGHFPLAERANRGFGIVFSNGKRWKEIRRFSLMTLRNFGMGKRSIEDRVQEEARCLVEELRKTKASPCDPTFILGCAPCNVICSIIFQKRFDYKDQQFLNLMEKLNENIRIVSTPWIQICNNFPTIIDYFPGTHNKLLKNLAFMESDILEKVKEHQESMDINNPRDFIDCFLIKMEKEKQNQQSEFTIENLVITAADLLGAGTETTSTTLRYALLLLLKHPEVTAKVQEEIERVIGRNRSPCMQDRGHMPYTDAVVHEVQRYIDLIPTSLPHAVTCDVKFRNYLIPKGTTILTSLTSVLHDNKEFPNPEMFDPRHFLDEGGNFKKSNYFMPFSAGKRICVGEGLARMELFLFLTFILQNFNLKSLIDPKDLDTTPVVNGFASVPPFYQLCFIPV
A short description of data set [7]: Plasma protein binding in dog after 15 mins by equilibrium dialysis method. The format is ADME, cell-free, Canis lupus familiaris. The note with it: read-out: PPB (converted). For orientation: In equilibrium dialysis only unbound substance equilibrates across the membrane.
Data set [8] has as its target Voltage-gated inwardly rectifying potassium channel KCNH2 (Homo sapiens, UniProt Q12809). The experiment in a line: Inhibition of human ERG. The data set is classed as toxicity.
Data set [9] has as its target Voltage-dependent L-type calcium channel subunit alpha-1C (Homo sapiens, UniProt Q13936). The experiment in a line: Inhibition of CaV1.2 (unknown origin) by patch clamp method.
A short description of data set [10]: Inhibition of Kv4.3/KChIP2.2 (unknown origin) by patch clamp method. Details: species or system Homo sapiens.
Data set [11] concerns the target T2, Potassium/sodium hyperpolarization-activated cyclic nucleotide-gated channel 2 (Homo sapiens, UniProt Q9UL51).
T2 sequence (Q9UL51 whole entry): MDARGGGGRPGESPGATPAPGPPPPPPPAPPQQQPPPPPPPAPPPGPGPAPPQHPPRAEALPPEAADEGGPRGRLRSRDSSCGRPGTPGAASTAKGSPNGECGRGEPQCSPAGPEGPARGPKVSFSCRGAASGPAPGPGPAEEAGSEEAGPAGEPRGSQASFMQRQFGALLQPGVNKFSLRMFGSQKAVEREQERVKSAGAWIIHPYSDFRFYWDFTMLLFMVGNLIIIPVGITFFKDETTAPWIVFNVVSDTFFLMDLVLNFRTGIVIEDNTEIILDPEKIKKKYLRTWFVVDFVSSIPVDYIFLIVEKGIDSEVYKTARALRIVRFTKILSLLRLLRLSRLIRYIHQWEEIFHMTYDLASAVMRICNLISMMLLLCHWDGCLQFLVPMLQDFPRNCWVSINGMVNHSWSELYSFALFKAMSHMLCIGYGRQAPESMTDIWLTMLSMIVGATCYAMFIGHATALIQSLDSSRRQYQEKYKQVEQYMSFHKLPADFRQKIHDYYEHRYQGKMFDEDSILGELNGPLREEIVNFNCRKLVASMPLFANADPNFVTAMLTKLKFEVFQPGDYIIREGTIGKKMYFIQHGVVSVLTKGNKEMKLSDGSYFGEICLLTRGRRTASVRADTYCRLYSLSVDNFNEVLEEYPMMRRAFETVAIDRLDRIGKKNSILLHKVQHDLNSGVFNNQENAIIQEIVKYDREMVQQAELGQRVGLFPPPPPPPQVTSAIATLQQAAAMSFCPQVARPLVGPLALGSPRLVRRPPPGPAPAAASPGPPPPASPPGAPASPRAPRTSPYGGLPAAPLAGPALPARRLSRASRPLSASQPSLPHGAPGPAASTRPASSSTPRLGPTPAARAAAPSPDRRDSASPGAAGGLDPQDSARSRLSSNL
Nature of the data set: Inhibition of HCN2 (unknown origin) by patch clamp method.

In data set [12] the target is Ionotropic glutamate receptor NMDA 1/2C (Homo sapiens, UniProt Q05586+Q14957). The experiment in a line: Positive allosteric modulation of recombinant human GluN1/GluN2C receptor stably expressed in HEK293 cells assessed as increase in glycine/L-glutamate-induced channel current at -70 mV holding potential by whole cell patch clamp method.
The target in data set [13] is Ionotropic glutamate receptor NMDA 1/2D (Homo sapiens, UniProt O15399+Q05586). The experiment in a line: Positive allosteric modulation of recombinant human GluN1/GluN2D receptor stably expressed in HEK293 cells assessed as increase in glycine/L-glutamate-induced channel current at -70 mV holding potential by whole cell patch clamp method.
Data set [14] relates to Mus musculus. The experiment in a line: Reversal of DOI-induced hyperlocomotion in CD-1 mouse assessed as reduction in distance travel at 5 mg/kg, ip administered 90 mins prior to DOI induction and measured upto 30 mins post DOI treatment (reference value: 7.8 +/- 0.8 meter). The format is functional. The note with it: time <= 120 min, 2 h.
Data set [15] has as its system Mus musculus. The experiment in a line: Reversal of DOI-induced hyperlocomotion in CD-1 mouse assessed as reduction in distance travel at 10 mg/kg, ip administered 90 mins prior to DOI induction and measured upto 30 mins post DOI treatment (reference value: 7.8 +/- 0.8 meter). The format is functional. The following applies: time <= 120 min, 2 h.
In data set [16] the test system is Mus musculus. The experiment in a line: Reversal of DOI-induced hyperlocomotion in CD-1 mouse assessed as reduction in rearing at 10 mg/kg, ip administered 90 mins prior to DOI induction and measured upto 30 mins post DOI treatment (reference value: 59.8 +/- 8.6 Counts). The following applies: time <= 120 min, 2 h. The format is functional.
Data set [17] is described as follows: Drug concentration in CD-1 mouse plasma at 7.5 mg/kg, ip administered for 90 mins. The data set is classed as ADME, organism-based.
Data set [18] is described as follows: Drug concentration in CD-1 mouse plasma at 10 mg/kg, ip administered for 90 mins. The format is ADME, organism-based.
A short description of data set [19]: Drug concentration in CD-1 mouse brain at 3 mg/kg, ip administered for 90 mins. The data set is classed as ADME, organism-based. The following applies: read-out: Ct.
A short description of a further data set: in vivo. The following applies: CD-1, mouse, brain and plasma.

≈ marks a conversion by molar mass, not a printed value.

Sequence of Voltage-dependent L-type calcium channel subunit alpha-1C (Q13936 whole entry): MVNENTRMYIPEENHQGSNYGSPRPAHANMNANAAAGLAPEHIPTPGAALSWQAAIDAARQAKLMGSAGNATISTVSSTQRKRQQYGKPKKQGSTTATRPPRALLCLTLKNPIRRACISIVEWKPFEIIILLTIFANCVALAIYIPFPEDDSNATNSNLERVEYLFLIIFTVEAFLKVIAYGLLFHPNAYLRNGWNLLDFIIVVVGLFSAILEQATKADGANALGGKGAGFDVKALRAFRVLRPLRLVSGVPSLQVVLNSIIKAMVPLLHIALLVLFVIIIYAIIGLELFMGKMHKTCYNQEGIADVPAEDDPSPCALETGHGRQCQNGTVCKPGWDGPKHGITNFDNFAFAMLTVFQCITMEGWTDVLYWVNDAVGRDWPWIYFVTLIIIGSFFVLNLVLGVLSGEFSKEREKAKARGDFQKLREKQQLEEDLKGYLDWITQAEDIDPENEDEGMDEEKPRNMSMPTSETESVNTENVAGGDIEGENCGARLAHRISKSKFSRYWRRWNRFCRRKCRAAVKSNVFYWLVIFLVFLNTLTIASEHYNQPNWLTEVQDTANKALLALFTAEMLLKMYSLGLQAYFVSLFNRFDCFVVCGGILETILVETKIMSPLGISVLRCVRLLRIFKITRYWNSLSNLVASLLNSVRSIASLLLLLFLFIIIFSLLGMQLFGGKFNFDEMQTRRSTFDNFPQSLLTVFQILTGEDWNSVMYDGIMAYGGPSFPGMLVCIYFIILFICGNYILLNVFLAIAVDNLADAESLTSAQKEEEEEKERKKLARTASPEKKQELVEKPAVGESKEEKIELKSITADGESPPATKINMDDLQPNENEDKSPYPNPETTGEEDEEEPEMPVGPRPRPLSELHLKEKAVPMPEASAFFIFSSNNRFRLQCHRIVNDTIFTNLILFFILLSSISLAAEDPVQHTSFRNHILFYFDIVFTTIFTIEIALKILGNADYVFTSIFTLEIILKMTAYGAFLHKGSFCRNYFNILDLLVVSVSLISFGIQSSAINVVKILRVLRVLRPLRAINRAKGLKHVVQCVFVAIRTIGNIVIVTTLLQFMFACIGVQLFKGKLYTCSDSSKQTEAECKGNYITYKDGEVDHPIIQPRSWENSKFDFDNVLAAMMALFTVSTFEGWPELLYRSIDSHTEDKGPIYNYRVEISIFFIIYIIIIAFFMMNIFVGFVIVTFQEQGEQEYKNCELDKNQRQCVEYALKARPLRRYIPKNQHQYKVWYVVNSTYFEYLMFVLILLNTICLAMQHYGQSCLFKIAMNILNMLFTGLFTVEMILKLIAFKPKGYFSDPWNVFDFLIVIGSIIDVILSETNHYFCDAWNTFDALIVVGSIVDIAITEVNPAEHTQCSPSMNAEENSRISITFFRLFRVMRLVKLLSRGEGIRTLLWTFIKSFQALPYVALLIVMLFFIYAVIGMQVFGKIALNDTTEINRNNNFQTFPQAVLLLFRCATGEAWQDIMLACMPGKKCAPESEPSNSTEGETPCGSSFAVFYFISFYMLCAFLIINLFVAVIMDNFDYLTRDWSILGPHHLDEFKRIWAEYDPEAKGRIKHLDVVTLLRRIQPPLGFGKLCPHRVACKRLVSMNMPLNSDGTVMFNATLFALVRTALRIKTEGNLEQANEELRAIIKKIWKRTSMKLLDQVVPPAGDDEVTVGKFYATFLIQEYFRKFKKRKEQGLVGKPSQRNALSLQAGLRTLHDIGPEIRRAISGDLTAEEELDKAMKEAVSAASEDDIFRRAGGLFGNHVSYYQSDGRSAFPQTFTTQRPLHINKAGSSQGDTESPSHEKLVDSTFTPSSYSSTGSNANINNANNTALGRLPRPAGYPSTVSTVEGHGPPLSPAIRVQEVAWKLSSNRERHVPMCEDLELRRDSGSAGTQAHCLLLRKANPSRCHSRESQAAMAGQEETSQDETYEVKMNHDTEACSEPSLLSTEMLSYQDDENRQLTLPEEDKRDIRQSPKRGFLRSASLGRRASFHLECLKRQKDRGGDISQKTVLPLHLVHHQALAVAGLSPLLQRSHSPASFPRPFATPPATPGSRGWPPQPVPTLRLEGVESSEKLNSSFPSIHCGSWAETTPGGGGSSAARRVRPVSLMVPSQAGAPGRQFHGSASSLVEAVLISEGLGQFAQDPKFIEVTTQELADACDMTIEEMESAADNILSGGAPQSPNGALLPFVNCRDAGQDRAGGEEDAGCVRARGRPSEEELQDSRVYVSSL
Sequence of Glutamate NMDA receptor; GRIN1/GRIN2B (Q13224 whole entry, other chains not shown): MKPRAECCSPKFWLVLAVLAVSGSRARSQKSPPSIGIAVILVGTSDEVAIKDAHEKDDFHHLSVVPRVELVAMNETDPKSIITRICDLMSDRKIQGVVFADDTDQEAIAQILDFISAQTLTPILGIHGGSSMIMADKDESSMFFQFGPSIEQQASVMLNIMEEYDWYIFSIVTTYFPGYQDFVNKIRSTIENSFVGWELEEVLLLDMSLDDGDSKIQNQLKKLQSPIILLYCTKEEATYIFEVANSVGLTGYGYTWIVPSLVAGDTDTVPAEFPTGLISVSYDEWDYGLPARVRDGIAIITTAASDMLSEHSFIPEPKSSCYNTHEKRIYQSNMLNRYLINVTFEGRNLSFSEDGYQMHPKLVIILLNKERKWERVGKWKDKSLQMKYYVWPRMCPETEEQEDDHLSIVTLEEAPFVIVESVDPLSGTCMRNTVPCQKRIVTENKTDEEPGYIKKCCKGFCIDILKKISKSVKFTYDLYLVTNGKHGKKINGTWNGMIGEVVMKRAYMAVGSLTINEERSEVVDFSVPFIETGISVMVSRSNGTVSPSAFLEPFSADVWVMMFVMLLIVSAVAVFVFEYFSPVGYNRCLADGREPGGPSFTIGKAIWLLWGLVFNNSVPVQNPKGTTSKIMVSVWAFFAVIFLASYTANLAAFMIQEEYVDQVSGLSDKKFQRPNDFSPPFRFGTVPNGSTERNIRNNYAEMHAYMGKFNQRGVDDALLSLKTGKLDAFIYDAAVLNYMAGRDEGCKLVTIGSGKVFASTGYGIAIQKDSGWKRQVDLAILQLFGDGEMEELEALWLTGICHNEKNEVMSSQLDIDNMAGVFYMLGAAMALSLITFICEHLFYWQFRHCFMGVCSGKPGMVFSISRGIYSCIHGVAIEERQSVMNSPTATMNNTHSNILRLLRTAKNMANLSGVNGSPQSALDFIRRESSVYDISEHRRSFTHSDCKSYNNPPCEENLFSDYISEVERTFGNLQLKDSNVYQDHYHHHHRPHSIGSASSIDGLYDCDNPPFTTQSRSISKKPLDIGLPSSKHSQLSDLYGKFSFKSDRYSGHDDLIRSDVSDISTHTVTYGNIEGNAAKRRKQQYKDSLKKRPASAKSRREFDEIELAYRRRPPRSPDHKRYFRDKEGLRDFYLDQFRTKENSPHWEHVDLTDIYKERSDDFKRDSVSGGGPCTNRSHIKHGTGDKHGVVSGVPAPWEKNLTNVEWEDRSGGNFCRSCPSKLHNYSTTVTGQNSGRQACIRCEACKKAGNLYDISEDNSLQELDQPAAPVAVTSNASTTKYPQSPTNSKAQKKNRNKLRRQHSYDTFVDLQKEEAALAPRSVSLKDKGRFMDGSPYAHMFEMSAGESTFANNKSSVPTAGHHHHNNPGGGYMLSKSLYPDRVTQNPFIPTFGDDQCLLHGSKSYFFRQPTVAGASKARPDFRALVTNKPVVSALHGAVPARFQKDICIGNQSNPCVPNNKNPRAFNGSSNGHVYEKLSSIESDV
Description for in vivo: Ratio of AUC(0 to 72 hrs) in CD-1 mouse brain to plasma by LC-MS/MS analysis

On to `C[C@H](CC[C@](C)(O)C(F)(F)F)[C@H]1CC[C@H]2[C@@H]3CC=C4C[C@@](C)(O)CC[C@]4(C)[C@H]3CC[C@]12C` [DALZANEMDOR], for which the microsomal CLint at 10 µM in data set [1] amounted to 11 µL/min/mg. Also, the results for the EC50 in data set [2], in [12] and in data set [13] were 79 nM, 150 nM and 430 nM, respectively. In addition, in data set [3], the concentration in solution (solubility at 1 h) came to 2.2 µM (≈ 1 µg/mL). In addition, the results for the bioavailability in data set [4] and in [5] were 28% and 30%, respectively. In addition, in data set [6], the Kp (usually tissue or fluid exposure divided by exposure in the circulation) at 1 h was 0.2. The 50% inhibitory concentration (IC50) (as a rule, the concentration at which inhibition is half-maximal) is above 10 µM on Cytochrome P450 2C8; above 100 µM against Cytochrome P450 2C9; above 100 µM at Cytochrome P450 2C19; above 30 µM in data set [8]; above 30 µM in data set [9]; above 30 µM in [10]. This compound also registered an IC50 in [11] above 30 µM. For the same compound, the fraction unbound at 0.25 h in [7] was 0.028. Moreover, the results for the Activity with Mus musculus [14], in the data set on Mus musculus [15] and in the data set with Mus musculus [16] were 4.1 m, 1.1 m and 7.7 Counts, respectively. The concentration at 1.5 h came out at 1590 ng/mL in [17], 3210 ng/mL in [18] and 490 ng/g in data set [19]. This compound also displayed a concentration ratio (Kp) in “in vivo” of 1.8.
